Assay results as given in patent publication US12077483B2, “Modified amine lipids” (Intellia Therapeutics, Inc., priority 2018, dated 2024).

Assays:
mouse TTR = assay: Serum TTR ELISA in mice after LNP delivery; assay type: in vivo; settings: Table 3, guide G282, CD-1 female mice, 0.1 mpk i.v.; for Serum TTR: Exp. 1, 8, 9, 10; for Serum TTR % TSS: percentage of vehicle control (TSS)
Method in brief: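 Female CD-1 mice received LNP at 0.1 mpk unless noted; serum was collected 6 or 7 days later. Total serum TTR was measured by mouse prealbumin ELISA at 10,000- and/or 2,500-fold dilution and is expressed as a percentage of vehicle control.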

[1] = pKa of amine lipid by TNS fluorescence; assay type: physicochemical; settings: probe TNS (6-(p-toluidino)-2-naphthalenesulfonic acid sodium salt), unformulated amine lipid in ethanol, sodium phosphate buffers -9.0
Method in brief: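 Unformulated amine lipid, about 100 μM final, in 0.1 M sodium phosphate buffers spanning pH 4.5–9.0 with TNS. Fluorescence read at ex 321/em 448 nm; normalized data fitted sigmoidally to give pKa.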

mouse TTR gene = assay: In vivo editing in mouse liver, LNP with Cas9 mRNA and sgRNA G282, NGS; settings: Table 3; guide G282; CD-1 female mice, 0.1 mpk i.v., liver at 6 or 7 days; Exp. 1, 8, 9, 10
Procedure: (§1) LNPs were prepared using various amine lipids in a 4-component lipid system consisting of an ionizable lipid (e.g. an amine lipid), DSPC, cholesterol and PEG-2k-DMG. In assays for percent liver editing in mice, Cas9 mRNA and chemically modified sgRNA targeting a mouse sequence were formulated in LNPs, at either a 1:1 w/w ratio or a 1:2 w/w ratio.
(§2) The lipid components were dissolved in 100% ethanol with the lipid component molar ratios described below. The chemically modified sgRNA and Cas9 mRNA were combined and dissolved in 25 mM citrate, 100 mM NaCl, pH 5.0, resulting in a concentration of total RNA cargo of approximately 0.45 mg/mL. The LNPs were formulated with an N/P ratio of about 6, with the ratio of chemically modified sgRNA: Cas9 mRNA at either a 1:1 or 1:2 w/w ratio as described below.
(§3) CD-1 female mice, ranging from 6-10 weeks of age were used in each study. Animals were weighed and grouped according to body weight for preparing dosing solutions based on group average weight. LNPs were dosed via the lateral tail vein in a volume of 0.2 mL per animal (approximately 10 mL per kilogram body weight). The animals were periodically observed for adverse effects for at least 24 hours post dose.
(§4) For studies measuring in vivo editing in liver, CD-1 female mice were dosed at 0.1 mpk unless otherwise noted. Animals were euthanized at 6 or 7 days by exsanguinationvia cardiac puncture under isoflourane anesthesia. Liver tissue was collected from each animal for DNA extraction and analysis. Blood was collected into serum separator tubes or into tubes containing buffered sodium citrate for plasma as described herein. Cohorts of mice were measured for editing by Next-Generation Sequencing (NGS).
(§5) In brief, to quantitatively determine the efficiency of editing at the target location in the genome, genomic DNA was isolated and deep sequencing was utilized to identify the presence of insertions and deletions introduced by gene editing.
(§6) PCR primers were designed around the target site (e.g., B2M), and the genomic area of interest was amplified. Additional PCR was performed according to the manufacturer's protocols (Illumina) to add the necessary chemistry for sequencing. The amplicons were sequenced on an Illumina MiSeq instrument. The reads were aligned to the relevant reference genome (e.g., GRCm38) after eliminating those having low quality scores. The resulting files containing the reads were mapped to the reference genome (BAM files), where reads that overlapped the target region of interest were selected and the number of wild type reads versus the number of reads which contain an insertion, substitution, or deletion was calculated.
(§7) The editing percentage (e.g., the “editing efficiency” or “percent editing”) is defined as the total number of sequence reads with insertions or deletions over the total number of sequence reads, including wild type.
(§8) We assessed in vivo editing efficiency for materials delivered with formulations including various amine lipid compounds. Editing was measured using either G282 (SEQ ID No: 1) which targets the mouse TTR gene or G650 (SEQ ID No. 2) which targets the mouse B2M gene. Lipids described above were assessed for efficacy through in vivo editing experiments. LNPs were formulated at a 1:1 w/w ratio of sgRNA to Cas9 mRNA, and at an N/P ratio of about 6. Molar concentrations of lipids in the lipid component of the LNPs are expressed as mol % amine lipid/DSPC/cholesterol/PEG-2k-DMG, e.g. 50/10/38.5/1.5. The final LNPs were characterized to determine the encapsulation efficiency, polydispersity index, and average particle size according to the analytical methods provided above. Analysis of average particle size, polydispersity (PDI), total RNA content and encapsulation efficiency of RNA are shown in Table 2.
To assess whether the editing was dose responsive, experiments were performed in vivo at various LNP dose levels. […]

mouse B2M gene = assay: In vivo editing in mouse liver, LNP with Cas9 mRNA and sgRNA G650, NGS; settings: Table 3; guide G650; CD-1 female mice, 0.1 mpk i.v., liver at 6 or 7 days; Exp. 2-7
Procedure: as §1, §2, §3, §4, §5, §6, §7, §8

SMILES	Serum TTR (mouse TTR) [µg/mL]	Serum TTR % TSS (mouse TTR) [% TSS]	pKa [1]	Editing Mean % Indel (mouse TTR gene) [%]	Editing Mean % Indel (mouse B2M gene) [%]
CCCCC/C=C\C/C=C\CCCCCCCC(=O)OCC(COC(=O)CCCCCCC/C=C\C/C=C\CCCCC)OC(=O)CCC(CCCCCCCCCCCC)OC(=O)OCCCN(C)CC (stereo not shown) [Compound 3, 2-((4-(((3-(ethyl(methyl)amino)propoxy)carbonyl)oxy)hexadecanoyl)oxy)propane-1,3-diyl (9Z,9′Z,12Z,12′Z)-bis(octadeca-9,12-dienoate)]	691	78	5.89	23.7	
CCCCC/C=C\C/C=C\CCCCCCCC(=O)OCC(COC(=O)CCCCCCC/C=C\C/C=C\CCCCC)OC(=O)CCC(CCCCCCCCCCCC)OC(=O)NCCCN(C)C (stereo not shown) [Compound 8, 2-((4-(((3-(dimethylamino)propyl)carbamoyl)oxy)hexadecanoyl)oxy)propane-1,3-diyl]	745	84	7.54	0.1	
CCCCC/C=C\C/C=C\CCCCCCCC(=O)OCC(COC(=O)CCCCCCC/C=C\C/C=C\CCCCC)OC(=O)CCCC(CCCCCCCCCCCC)OC(=O)OCCCN1CCCC1 (stereo not shown) [Compound 27, 2-((5-(((3-(pyrrolidin-1-yl)propoxy)carbonyl)oxy)heptadecanoyl)oxy)propane-1,3-diyl (9Z,9′Z,12Z,12′Z)-bis(octadeca-9,12-dienoate)]			5.97		13.0
CCCCC/C=C\C/C=C\CCCCCCCC(=O)OCC(COC(=O)CCCCCCC/C=C\C/C=C\CCCCC)OC(=O)CCCC(CCCCCCCCCCCC)OC(=O)NCCN(C)CC (stereo not shown) [Compound 28, 2-((5-(((2-(ethyl(methyl)amino)ethyl)carbamoyl)oxy)heptadecanoyl)oxy) propane-1,3-diyl (9Z,9′Z,12Z,12′Z)-bis(octadeca-9,12-dienoate)]			6.06		17.8
CCCCC/C=C\C/C=C\CCCCCCCC(=O)OCC(COC(=O)CCCCCCC/C=C\C/C=C\CCCCC)OC(=O)CCCC(CCCCCCCCCCCC)OC(=O)NCC1CCCN1C (stereo not shown) [Compound 29, 2-((5-((((1-methylpyrrolidin-2-yl)methyl)carbamoyl)oxy)heptadecanoyl)oxy) propane-1,3-diyl (9Z,9′Z,12Z,12′Z)-bis(octadeca-9,12-dienoate)]			6.05		3.6
CCCCC/C=C\C/C=C\CCCCCCCC(=O)OCC(COC(=O)CCC(CCCCCCCCCCCC)OC(=O)OCCCN(C)C)OC(=O)CCCCCCC/C=C\C/C=C\CCCCC (stereo not shown) [Compound 30, 9-dodecyl-2-methyl-7,12-dioxo-6,8,13-trioxa-2-azahexadecane-15,16-diyl (9Z,9′Z,12Z,12′Z)-bis(octadeca-9,12-dienoate)]	841	95	6.53	10.4	
CCCCC/C=C\C/C=C\CCCCCCCC(=O)OCC(COC(=O)CCCCCCC/C=C\C/C=C\CCCCC)OC(=O)CCC(CCCCCCCC)OC(=O)OCCCN(C)C (stereo not shown) [Compound 31, 2-((4-(((3-(dimethylamino)propoxy)carbonyl)oxy)dodecanoyl)oxy)propane-1,3-diyl (9Z,9′Z,12Z,12′Z)-bis(octadeca-9,12-dienoate)]			6.28		15.6
CCCCC/C=C\C/C=C\CCCCCCCC(=O)OCC(COC(=O)CCCCCCC/C=C\C/C=C\CCCCC)OC(=O)CCC(CCCCCCCC)OC(=O)OCCCN(CC)CC (stereo not shown) [Compound 32, 2-((4-(((3-(diethylamino)propoxy)carbonyl)oxy)dodecanoyl)oxy)propane-1,3-diyl (9Z,9′Z,12Z,12′Z)-bis(octadeca-9,12-dienoate)]			5.64		11.6
CCCCC/C=C\C/C=C\CCCCCCCC(=O)OCC(COC(=O)CCCCCCC/C=C\C/C=C\CCCCC)OC(=O)CCC(CCCCCCCC)OC(=O)OCCCN(C)CC (stereo not shown) [Compound 33, 2-((4-(((3-(ethyl(methyl)amino)propoxy)carbonyl)oxy)dodecanoyl)oxy)propane-1,3-diyl (9Z,9′Z, 12Z, 12′Z)-bis(octadeca-9,12-dienoate)]			5.95		20.0
CCCCC/C=C\C/C=C\CCCCCCCC(=O)OCC(COC(=O)CCCCCCC/C=C\C/C=C\CCCCC)OC(=O)CCC(CCCCCCCC)OC(=O)N(C)CCN(C)C (stereo not shown) [Compound 38, 2-((4-(((2-(dimethylamino)ethyl)(methyl)carbamoyl)oxy)dodecanoyl)oxy) propane-1,3-diyl (9Z,9′Z,12Z,12′Z)-bis(octadeca-9,12-dienoate)]	301	39	5.62	26.7	
CCCCC/C=C\C/C=C\CCCCCCCC(=O)OCC(COC(=O)CCCCCCC/C=C\C/C=C\CCCCC)OC(=O)CCC(OC(=O)NCCN(C)CC)C1CCCCC1 (stereo not shown) [Compound 41, 2-((4-cyclohexyl-4-(((2-(ethyl(methyl)amino)ethyl)carbamoyl)oxy)butanoyl)oxy) propane-1,3-diyl (9Z,9′Z,12Z,12′Z)-bis(octadeca-9,12-dienoate)]	393	48	6.51	28.8	
CCCCC/C=C\C/C=C\CCCCCCCC(=O)OCC(COC(=O)CCCCCCC/C=C\C/C=C\CCCCC)OC(=O)CCC(CCCC)OC(=O)NCCN(C)CC (stereo not shown) [Compound 42, 2-((4-(((2-(ethyl(methyl)amino)ethyl)carbamoyl)oxy)octanoyl)oxy)propane-1,3-diyl (9Z,9′Z,12Z,12′Z)-bis(octadeca-9,12-dienoate)]	473	58	6.52	21.6	
CCCCC/C=C\C/C=C\CCCCCCCC(=O)OCC(COC(=O)CCCCCCC/C=C\C/C=C\CCCCC)OC(=O)NCCN(C)CC [Compound 114, 2-(((2-(ethyl(methyl)amino)ethyl)carbamoyl)oxy)propane-1,3-diyl (9Z,9′Z,12Z,12′Z)-bis(octadeca-9,12-dienoate), reference compound]	637	78	6.93	0.8	
